System: yeast genes (level of expressed mRNA)
Test: DNA chip analysis of expressed mRNA of yeast genes after 2 h culture with a toxic chemical substance
Format: cell-based, Saccharomyces cerevisiae S288C
Description: Yeast (Saccharomyces cerevtisiae S288C (α SUC2mal mel gap2 CUP1)) were cultured at 25° C. on YPD medium (yeast extract 1%, polypepton 2%, glucose 2%). One of toxic chemical substances was added to the cell at logarithmic growth phase, and the cell was further cultured for two hours. Cell was cultured without any chemical substance in the same condition, and was used as control. Concentrations of the chemical substances were defined to inhibit the growth of the yeast but not lead to death.
After the completion of cultivation, the culture was centrifuged to collect the cells. To the cells, sodium acetate buffer (50 mM sodium acetate, 10 mM EDTA, 1% SDS) was added, and the mixture was shaken at 65° C. for five minutes, followed by returning to room temperature, and obtaining the supernatant, which procedure was repeated two times. To the supernatant, ½ amount of a solution of phenol/chloroform was added, and the mixture was centrifuged to give a supernatant, which was added with an equal amount of chloroform, and the mixture was centrifuged to give a supernatant. To the supernatant, an equal amount of isopropanol containing 0.3 M sodium acetate was added, and the mixture was allowed to stand at room temperature for 30 minutes, after which the mixture was centrifuged to give a sediment of the whole RNAs. Seventy % ethanol was added to the sediment, and the mixture was again centrifuged to give a sediment, which was then dried and dissolved in water. mRNA was isolated from the whole RNAs as followings. In view of the fact that a poly A chain is attached to the 3′ terminus of mRNA, a polynucleotide having a poly T structure which was immobilized on the surface of latex beads was used to trap the mRNA, and then the mRNA was washed and eluted with spine column (Oligotex-dT30<Super>mRNA Purification Kit, Takara). Reverse transcription of the mRNA was conducted with a reverse transcriptase (Super Script II Reverse Transcriptase; catalogue No. 18064-014, GibcoBRL) using fluorescence-labeled nucleotides to give cDNAs that were introduced with Cy3-dUTP or Cy5-dUTP during the reverse transcription.
The labeled cDNAs were dissolved in TE buffer (10 mM Tris-HCl/1 mM EDTA, pH8.0), and the solution was dropped on the DNA chip containing the whole genes of yeast (DNA Chip Research Inc. Japan) so that the cDNAs were hybridized on the DNA chip at 65° C. for over 12 hours. The fluoresces intensity of the DNA chip was read with a scanner, and the ratio relative to the fluorescence intensity resulting from the absence of chemical substance was estimated as the following, which is shown in Tables 1 to 9: [formula]
In the Tables, “Intensity” indicated in the rightmost column is a value of the level of expressed mRNA of each gene in control cells as divided by the average level of the expressions of the whole genes.

Na2As [(1)]
The level of expressed mRNA in the presence of chemical substance/ (yeast gene YNL074C, ratio to control without chemical substance, 2 h culture): 0.9 | The level of expressed mRNA in the presence of chemical substance/ (yeast gene YNL092W, ratio to control without chemical substance, 2 h culture): 1.3 | The level of expressed mRNA in the presence of chemical substance/The level of expressed mRNA in the absence of chemical substance (yeast gene YNL093W): 2.1 | The level of expressed mRNA in the presence of chemical substance/ (yeast gene YNL115C, ratio to control without chemical substance, 2 h culture): 0.7 | The level of expressed mRNA in the presence of chemical substance/ (yeast gene YNL156C, ratio to control without chemical substance, 2 h culture): 1.1 | The level of expressed mRNA in the presence of chemical substance/ (yeast gene YNL234W, ratio to control without chemical substance, 2 h culture): 1.1 | The level of expressed mRNA in the presence of chemical substance/ (yeast gene YNL281W, ratio to control without chemical): 1.0 | The level of expressed mRNA in the presence of chemical substance/ (yeast gene YNL305C, ratio to control without chemical): 0.9 | The level of expressed mRNA in the presence of chemical substance/The level of expressed mRNA in the absence of chemical substance (yeast gene YNL333W): 1.0 | The level of expressed mRNA in the presence of chemical substance/The level of expressed mRNA in the absence of chemical substance (yeast gene YNR010W): 1.3 | The level of expressed mRNA in the presence of chemical substance/ (yeast gene YNR068C, ratio to control without chemical): 1.2 | The level of expressed mRNA in the presence of chemical substance/The level of expressed mRNA in the absence of chemical substance (yeast gene YNR069C): 1.5 | The level of expressed mRNA in the presence of chemical substance/in the absence of chemical substance (yeast gene YNR072W): 1.1 | The level of expressed mRNA in the presence of chemical substance/The level of expressed mRNA in the absence of chemical substance (yeast gene YOL013C): 0.9 | The level of expressed mRNA in the presence of chemical substance/ (yeast gene YOL032W, ratio to control without chemical): 1.3 | The level of expressed mRNA in the presence of chemical substance/ (yeast gene YOL036W, ratio to control without chemical): 0.8 | The level of expressed mRNA in the presence of chemical substance/ (yeast gene YOL047C, ratio to control without chemical): 1.4 | The level of expressed mRNA in the presence of chemical substance/ (yeast gene YOL071W, ratio to control without chemical): 1.3 | The level of expressed mRNA in the presence of chemical substance/ (yeast gene YOL082W, ratio to control without chemical): 1.0 | The level of expressed mRNA in the presence of chemical substance/ (yeast gene YOL083W, ratio to control without chemical): 1.1 | The level of expressed mRNA in the presence of chemical substance/in the absence of chemical substance (yeast gene YOL096C): 1.1 | The level of expressed mRNA in the presence of chemical substance/ (yeast gene YOL117W, ratio to control without chemical): 1.0 | The level of expressed mRNA in the presence of chemical substance/ (yeast gene YOL131W, ratio to control without chemical): 1.0 | The level of expressed mRNA in the presence of chemical substance/ (yeast gene YOL150C, ratio to control without chemical substance, 2 h culture): 4.1 | The level of expressed mRNA in the presence of chemical substance/ (yeast gene YOL162W, ratio to control without chemical): 2.0 | The level of expressed mRNA in the presence of chemical substance/The level of expressed mRNA in the absence of chemical substance (yeast gene YOL164W): 0.9 | The level of expressed mRNA in the presence of chemical substance/ (yeast gene YOR019W, ratio to control without chemical): 2.9 | The level of expressed mRNA in the presence of chemical substance/The level of expressed mRNA in the absence of chemical substance (yeast gene YOR036W): 1.8 | The level of expressed mRNA in the presence of chemical substance/The level of expressed mRNA in the absence of chemical substance (yeast gene YOR117W): 0.8 | The level of expressed mRNA in the presence of chemical substance/The level of expressed mRNA in the absence of chemical substance (yeast gene YOR124C): 0.6 | The level of expressed mRNA in the presence of chemical substance/The level of expressed mRNA in the absence of chemical substance (yeast gene YOR132W): 0.9 | The level of expressed mRNA in the presence of chemical substance/The level of expressed mRNA in the absence of chemical substance (yeast gene YOR157C): 1.0 | The level of expressed mRNA in the presence of chemical substance/in the absence of chemical substance (yeast gene YOR180C): 0.8 | The level of expressed mRNA in the presence of chemical substance/The level of expressed mRNA in the absence of chemical substance (yeast gene YOR181W): 1.0 | The level of expressed mRNA in the presence of chemical substance/The level of expressed mRNA in the absence of chemical substance (yeast gene YOR185C): 1.1 | The level of expressed mRNA in the presence of chemical substance/ (yeast gene YOR197W, ratio to control without chemical): 0.8 | The level of expressed mRNA in the presence of chemical substance/The level of expressed mRNA in the absence of chemical substance (yeast gene YOR198C): 1.0 | The level of expressed mRNA in the presence of chemical substance/The level of expressed mRNA in the absence of chemical substance (yeast gene YOR259C): 0.8 | The level of expressed mRNA in the presence of chemical substance/The level of expressed mRNA in the absence of chemical substance (yeast gene YOR261C): 1.0 | The level of expressed mRNA in the presence of chemical substance/The level of expressed mRNA in the absence of chemical substance (yeast gene YOR288C): 0.9 | The level of expressed mRNA in the presence of chemical substance/The level of expressed mRNA in the absence of chemical substance (yeast gene YOR355W): 0.7 | The level of expressed mRNA in the presence of chemical substance/in the absence of chemical substance (yeast gene YOR363C): 0.8 | The level of expressed mRNA in the presence of chemical substance/The level of expressed mRNA in the absence of chemical substance (yeast gene YOR383C): 0.9 | The level of expressed mRNA in the presence of chemical substance/ (yeast gene YPL087W, ratio to control without chemical): 1.0 | The level of expressed mRNA in the presence of chemical substance/The level of expressed mRNA in the absence of chemical substance (yeast gene YPL089C): 1.2 | The level of expressed mRNA in the presence of chemical substance/The level of expressed mRNA in the absence of chemical substance (yeast gene YPL109C): 1.1 | The level of expressed mRNA in the presence of chemical substance/The level of expressed mRNA in the absence of chemical substance (yeast gene YPL149W): 1.5 | The level of expressed mRNA in the presence of chemical substance/The level of expressed mRNA in the absence of chemical substance (yeast gene YPL154C): 0.7 | The level of expressed mRNA in the presence of chemical substance/ (yeast gene YPL196W, ratio to control without chemical): 1.3 | The level of expressed mRNA in the presence of chemical substance/ (yeast gene YPL206C, ratio to control without chemical): 1.0 | The level of expressed mRNA in the presence of chemical substance/ (yeast gene YPL222W, ratio to control without chemical): 0.9 | The level of expressed mRNA in the presence of chemical substance/ (yeast gene YPR023C, ratio to control without chemical): 1.2 | The level of expressed mRNA in the presence of chemical substance/The level of expressed mRNA in the absence of chemical substance (yeast gene YPR103W): 0.7 | The level of expressed mRNA in the presence of chemical substance/The level of expressed mRNA in the absence of chemical substance (yeast gene YPR108W): 0.8 | The level of expressed mRNA in the presence of chemical substance/ (yeast gene YPR151C, ratio to control without chemical): 2.3 | The level of expressed mRNA in the presence of chemical substance/in the absence of chemical substance (yeast gene YPR184W): 1.2
